In patent publication US7655681B2, “Method of treating and diagnosing sleep disordered breathing and means for carrying out the method” (priority 2004, dated 2010):

Key:
[1] = system: patient with light to moderate OSA; assay: Controlled repeated dosing, repeated withdrawal study of zonisamide with polysomnographic recording; format: in vivo, human; details: for Sat <90%/hr (number of episodes reaching an oxygen saturation below 90% per hour of sleep): Day 0 baseline 4; for B-gluc (blood glucose concentration): Day 0 baseline 6.7; for CSAI (central sleep apnea index): Day 0 baseline 8; for AI (apnea index, number of obstructive apneas per hour of sleep): Day 0 baseline 16; for HI (hypopnea index, number of obstructive hypopneas per hour of sleep): Day 0 baseline 22; for BMI (body mass index): Day 0 baseline 26.5; for AHI (apnea/hypopnea index): Day 0 baseline 38; for MinSat (lowest oxygen saturation value reached during the sleep recording): Day 0 baseline 82; for DBP (diastolic blood pressure): Day 0 baseline 95; for SBP (systolic blood pressure): Day 0 baseline 165
Procedure: A controlled repeated dosing, repeated withdrawal study of zonisamide was undertaken in a patient (BMI 26.5) with light to moderate OSA (A/H index, 30 and 35 on previous screening). […] A baseline polysomographic recording (standard sleep montage, nasal pressure recording) was undertaken at baseline and zonisamide therapy was started at 100 mg o.d. orally (Zonegran® capsules) with an increase to 400 mg after two weeks and finally to 600 mg at the end of 12 weeks. Repeat sleep recordings were undertaken after 19 days (5 days on 400 mg) and after 90 days (6 days on 600 mg). The following key index data were recorded (Table 1).

[2] = system: three male patients with light to moderate/severe OSA; assay: Uncontrolled repeated dosing study of zonisamide with polysomnography; format: in vivo, human; details: for AHI, mean for all patients: baseline mean 30; for BMI, mean for all patients: baseline mean 32; for Sat. min, mean for all patients: baseline mean 84
Procedure: Uncontrolled repeated dosing of zonisamide. An uncontrolled study of three male patients (mean BMI at baseline 32) with light to moderate/severe OSA treated with zonisamide up to an average of 177 days was performed. Polysomnography (standard sleep montage, nasal pressure recording) was undertaken at baseline. Zonisamide therapy was started at 50 or 100 mg o.d. orally (Zonegran® capsules). […] A repeat sleep study (follow-up 1) was undertaken. A further sleep study (follow-up 2) was performed after 165, 218 and 149 days at doses of 400, 600 and 200 mg, respectively. The follow-up 2 measurements were thus performed at a pharmacokinetical steady-state.

[3] = cited from earlier work
[4] = Day 19 (5 days on 400 mg o.d. orally)
[5] = Day 90 (6 days on 600 mg orally)
[6] = during treatment, 100 to 600 mg orally
[7] = starting already after 10 days of treatment
[8] = follow-up 1, mean dose 200 mg, mean 33 days of treatment
[9] = follow-up 2, mean dose 400 mg, mean 177 days of treatment
[10] = patient two, early titration phase, 50 mg zonisamide, simplified sleep recording

NS(=O)(=O)Cc1noc2ccccc12 [zonisamide, 1,2-benzisoxazole-3-methanesulfonamide]
Sat <90%/hr (number of episodes reaching an oxygen saturation below 90% per hour of sleep) [1, 4]: <1 per hour of sleep
B-gluc (blood glucose concentration) [1, 4]: 6.4 mM
CSAI (central sleep apnea index) [1, 4]: 2 per hour of sleep
AI (apnea index, number of obstructive apneas per hour of sleep) [1, 4]: 4 per hour of sleep
HI (hypopnea index, number of obstructive hypopneas per hour of sleep) [1, 4]: 9 per hour of sleep
BMI (body mass index) [1, 4]: 26.4 kg/m^2
AHI (apnea/hypopnea index) [1, 4]: 13 per hour of sleep
MinSat (lowest oxygen saturation value reached during the sleep recording) [1, 4]: 89
DBP (diastolic blood pressure) [1, 4]: 89 mmHg
SBP (systolic blood pressure) [1, 4]: 155 mmHg
Sat <90%/hr (number of episodes reaching an oxygen saturation below 90% per hour of sleep) [1, 5]: 0 per hour of sleep
B-gluc (blood glucose concentration) [1, 5]: 5.9 mM
CSAI (central sleep apnea index) [1, 5]: 2 per hour of sleep
AI (apnea index, number of obstructive apneas per hour of sleep) [1, 5]: 2 per hour of sleep
HI (hypopnea index, number of obstructive hypopneas per hour of sleep) [1, 5]: 6 per hour of sleep
BMI (body mass index) [1, 5]: 25.6 kg/m^2
AHI (apnea/hypopnea index) [1, 5]: 8 per hour of sleep
MinSat (lowest oxygen saturation value reached during the sleep recording) [1, 5]: 90
DBP (diastolic blood pressure) [1, 5]: 85 mmHg
SBP (systolic blood pressure) [1, 5]: 145 mmHg
change in total sleep time ([1]; after zonisamide): no clinically significant change
side effects ([1]; during the study period, up to 600 mg orally, 90 days): No side effects were reported
number of mixed events [1, 6]: decreased in proportion to the number of obstructive events
polysomnographically recorded sleep variables [1, 6]: not systematically affected
apnea reducing effect ([1]; obstructive and central events): potent apnea reducing effect
daytime sleepiness ([1]; spontaneous reporting, already after 10 days of treatment): markedly reduced
blood glucose concentration [1, 7]: gradually reduced
blood pressure [1, 7]: gradually reduced
nocturnal snoring episodes ([1]; subjective and spouse reports, soon after onset of treatment): clear reduction
apnea reducing effect ([2]; dosing levels from below 100 mg up to 600 mg daily): potent apnea reducing effect
AHI, mean for all patients [2, 8]: 25 per hour of sleep
BMI, mean for all patients [2, 8]: 31 kg/m^2
Sat. min, mean for all patients [2, 8]: 85
AHI, mean for all patients [2, 9]: 22 per hour of sleep
BMI, mean for all patients [2, 9]: 30 kg/m^2
Sat. min, mean for all patients [2, 9]: 86
AHI ([2]; patient one, follow-up 1, dose 100 mg, 7 days of treatment, baseline 20): 12 per hour of sleep
BMI ([2]; patient one, follow-up 1, dose 100 mg, 7 days of treatment, baseline 28.3): 28.3 kg/m^2
Sat. min (lowest oxygen saturation value reached during the sleep recording) ([2]; patient one, follow-up 1, dose 100 mg, 7 days of treatment, baseline 88): 85
AHI ([2]; patient one, follow-up 2, dose 200 mg, 149 days of treatment, baseline 20): 11 per hour of sleep
BMI ([2]; patient one, follow-up 2, dose 200 mg, 149 days of treatment, baseline 28.3): 27.9 kg/m^2
Sat. min (lowest oxygen saturation value reached during the sleep recording) ([2]; patient one, follow-up 2, dose 200 mg, 149 days of treatment, baseline 88): 90
BMI ([2]; patient three, follow-up 1, dose 100 mg, 10 days of treatment, baseline 35.0): 35.1 kg/m^2
AHI ([2]; patient three, follow-up 1, dose 100 mg, 10 days of treatment, baseline 57): 59 per hour of sleep
Sat. min (lowest oxygen saturation value reached during the sleep recording) ([2]; patient three, follow-up 1, dose 100 mg, 10 days of treatment, baseline 79): 80
BMI ([2]; patient three, follow-up 2, dose 600 mg, 218 days of treatment, baseline 35.0): 33.5 kg/m^2
AHI ([2]; patient three, follow-up 2, dose 600 mg, 218 days of treatment, baseline 57): 53 per hour of sleep
Sat. min (lowest oxygen saturation value reached during the sleep recording) ([2]; patient three, follow-up 2, dose 600 mg, 218 days of treatment, baseline 79): 78
AHI [2, 10]: 8
BMI [2, 10]: 31.3
AHI ([2]; patient two, follow-up 1, dose 400 mg, 81 days of treatment, baseline 12): 3 per hour of sleep
BMI ([2]; patient two, follow-up 1, dose 400 mg, 81 days of treatment, baseline 31.4): 30.7 kg/m^2
Sat. min (lowest oxygen saturation value reached during the sleep recording) ([2]; patient two, follow-up 1, dose 400 mg, 81 days of treatment, baseline 86): 91
AHI ([2]; patient two, follow-up 2, dose 400 mg, 165 days of treatment, baseline 12): 3 per hour of sleep
BMI ([2]; patient two, follow-up 2, dose 400 mg, 165 days of treatment, baseline 31.4): 29.3 kg/m^2
Sat. min (lowest oxygen saturation value reached during the sleep recording) ([2]; patient two, follow-up 2, dose 400 mg, 165 days of treatment, baseline 86): 90
daytime sleepiness ([2]; spontaneous reporting by the patients): overall positive effect
polysomnographically recorded sleep variables ([2]; three patients, during treatment): not systematically affected
side effects ([2]; three patients, up to 600 mg, up to an average of 177 days): No significant side effects were reported
half-life in plasma [3]: about 60 hrs
